Experimental data published in paper PMC8587515, “Cytotoxic and Anti-Inflammatory Activities of Dihydroisocoumarin and Xanthone Derivatives from Garcinia picrorhiza” (Molecules, 2021).

Experiments:
[1] = system: MCF-7 (human breast adenocarcinoma); design: method as in PMID 30153471, PMID 33999337; details: MTT; results based on previous work; read-out: IC50 ± SEM, MCF-7; cited from earlier work
[2] = system: four cancer cells (KB, HeLa S3, MCF-7, and Hep G2); details: HeLa S3, MCF-7, Hep G2, earlier studies, read-out: IC50 values against four cancer cells; cited from earlier work
[3] = system: Hep G2 (human hepatocellular carcinoma); experiment: MTT cytotoxic activity assay, Hep G2; type: cell-based; details: HepG2, 72 h, mean ± SEM of three replicates
Method: The cytotoxic activity of the isolated compounds was evaluated using the MTT viability assay with doxorubicin as the positive control and the results are presented in Table 2.
The MTT colorimetric method was performed to evaluate cytotoxic activity of the isolated compounds against human epidermoid carcinoma (KB; ATCC CCL17), human cervical carcinoma (HeLa S3; ATCC CCL2-2), human colon adenocarcinoma (HT-29; ATCC HTB-38), human breast adenocarcinoma (MCF-7; ATCC HTB-22), and human hepatocellular carcinoma (Hep G2; ATCC HB-8065) cell lines according to the previous method. […] After centrifugation at 1400 rpm for 5 min at 4 °C, the supernatant was decanted and DMSO (100 µL/well) was added to allow formazan product solubilization, which was subsequently measured by a microplate reader (Tecan Trading AG, Switzerland) at wavelength 550 nm. […] The results are expressed as the mean values of three replicates for three independent experiments. IC50 values were determined by graphical analysis using SigmaPlot 10 (Systat Software Inc., San Jose, CA, USA), obtained by plotting the cell viability percentage versus sample concentration.

Row | SMILES | IC50 [1] | IC50 [2] | IC50 [3]
1 | C[C@@H]1Oc2cc(O)c3c(=O)c4ccc(O)c(O)c4oc3c2C1(C)C [Compound 7, 2-deprenylrheediaxanthone B] | 6.5 ± 0.2 µM | < 10 µM | 
2 | C[C@H]1Oc2c(c(O)c3c(=O)c4ccc(O)c(O)c4oc3c2CCC(C)(C)O)C1(C)C [Compound 4, gerontoxanthone C hydrate] |  |  | 6.3 ± 0.6 µM
